From patent US6495571B1, “Pyridine compounds, use and preparation thereof” (Southern Research Institute, priority 1999, dated 2002)
Read-outs that look alike come from different tables or passages of the source. Marks after values point to notes of the source that are not given here.

Legend:
cancer = assay: Anti-cancer activity (test not specified)
[1] = test system: P388/BCNU (carmustine-resistant) leukemia; assay: Antitumor activity against IP-implanted P388/BCNU leukemia
[2] = test system: P388/CPA (cyclophosphamide-resistant) leukemia; assay type: in vivo, CD2F1 female mice
[3] = test system: human MX-1 mammary tumor (sc, 30-40 mg fragments); assay: In vivo antitumor activity, s.c.-implanted MX-1 xenograft; set-up: species or system Athymic mice (Ncr-nu)
[4] = test system: human MX-1 mammary tumor (ic, 10^6 cells); assay: In vivo antitumor activity, i.c.-implanted MX-1 xenograft; conditions: for Median % ILS (dying mice only) / Tumor-Free-Surv/Total: Days 1-5; for Median % ILS (based on dying mice only) / Survivors: optimal doses (LD10 or less), schedule QD1-5, administered LP.
[5] = test system: P388/L-PAM (melphalan-resistant) leukemia
Cytotoxicity in vitro = assay type: cell-based
[6] = IP 20.0 mg/kg/dose, Q1D × 1 (1)
[7] = IP 30.0 mg/kg/dose, Q1D × 1 (1)
[8] = IP 175.0 mg/kg/dose, Q1D × 1 (1)
[9] = IP 265.0 mg/kg/dose, Q1D × 1 (1)
[10] = oral (gavage) 135 mg/kg/dose, Days 13-17
[11] = IP 60.0 mg/kg/dose, Q1D × 5 (1)
[12] = IP 90.0 mg/kg/dose, Q1D × 5 (1)
[13] = IP 135.0 mg/kg/dose, Q1D × 5 (1)
[14] = IP 15.0 mg/kg/dose, Q1D × 1 (1)

## CCOc1nc(C(Cl)(Cl)Cl)c(Cl)c(OCC)c1Cl [3,5-dichloro-4,6-diethoxy-2-(trichloromethyl)pyridine]
cancer
  anti-cancer activity (in words): active anti-cancer activity

## CCOc1c(Cl)c(OC)nc(C(Cl)(Cl)Cl)c1Cl [3,5-dichloro-4-ethoxy-6-methoxy-2-(trichloromethyl)pyridine]
cancer
  anti-cancer activity (in words): active anti-cancer activity

## O=NN(CCCl)C(=O)NCCCl [BCNU (carmustine), carmustine]
[1]; [6]
  50-DAY SURV./TOTAL: 0/6
  % ILS: 0%
[1]; [7]
  50-DAY SURV./TOTAL: 0/6
  % ILS: −6%
  MEDIAN DAY OF DEATH: 8.5
P388/0 murine leukemia; [6]
  50-DAY SURV./TOTAL: 3/6
P388/0 murine leukemia; [7]
  50-DAY SURV./TOTAL: 6/6

## O=P1(N(CCCl)CCCl)NCCCO1 (stereo not shown) [CPA (cycloposphamide), cyclophosphamide]
[2]; [8]
  50-DAY SURV./TOTAL: 0/6
  % ILS: +9%
  APPROX. NET LOG10 CHANGE IN TUMOR BURDEN AT END OF Rx: −0.6
[2]; [9]
  50-DAY SURV./TOTAL: 0/6
  % ILS: +27%
  APPROX. NET LOG10 CHANGE IN TUMOR BURDEN AT END OF Rx: −1.7
P388/0 murine leukemia; [8]
  50-DAY SURV./TOTAL: 1/6
  % ILS: +172%
  APPROX. NET LOG10 CHANGE IN TUMOR BURDEN AT END OF Rx: ca −6.8
P388/0 murine leukemia; [9]
  50-DAY SURV./TOTAL: 6/6

## COc1nc(C(Cl)(Cl)Cl)c(Cl)c(OC(=O)c2ccc([N+](=O)[O-])o2)c1Cl [DM-NF-PEN]
[3]; IP 90 mg/kg/dose, Days 12-16
  T-C: >41.2 days
  Tumor-Free-Surv/Total: 4/5
[4]; IP 135 mg/kg/dose
  Median % ILS (dying mice only): +59%
  Tumor-Free-Surv/Total: 0/5

## COc1nc(C(Cl)(Cl)Cl)c(Cl)c(OC(=O)C(C)(C)C)c1Cl [DM-P-PEN]
[3]; IP 135 mg/kg/dose, Days 11-15
  T-C: >42.7 days
  Tumor-Free-Surv/Total: 5/5
[3]; [10]
  T-C: 0.9 days
  Tumor-Free-Surv/Total: 0/5
[4]; IP 135 mg/kg/dose
  Median % ILS (dying mice only): +64%
  Tumor-Free-Surv/Total: 0/5
[4]; oral (gavage) 135 mg/kg/dose
  Median % ILS (dying mice only): +20%
  Tumor-Free-Surv/Total: 0/5

## COc1nc(C(Cl)(Cl)Cl)c(Cl)c(O)c1Cl [DM-PEN, 3,5-dichloro-2-methoxy-4-hydroxy-6-(trichloromethyl)pyridine]
[4]; Table 2 conditions
  cures: not
[4]
  Median % ILS (based on dying mice only): 60%
  Survivors: 0/5
[5]; [11]
  50-DAY SURV./TOTAL: 0/6
  MEDIAN DAY OF DEATH: 13.5
[5]; [12]
  50-DAY SURV./TOTAL: 0/6
[5]; [13]
  50-DAY SURV./TOTAL: 0/6
  Lethality of the dosage (LD mark beside % ILS): LD33
[5]; mouse, in vivo
  activity in this tumor model (in words): none of the three showed significant activity
[1]; [11]
  50-DAY SURV./TOTAL: 0/6
  % ILS: +33%
  APPROX. NET LOG10 CHANGE IN TUMOR BURDEN AT END OF Rx: +0.8
[1]; [12]
  50-DAY SURV./TOTAL: 0/6
  APPROX. NET LOG10 CHANGE IN TUMOR BURDEN AT END OF Rx: −0.6
  MEDIAN DAY OF DEATH: 14.0
[1]; [13]
  50-DAY SURV./TOTAL: 0/6
  % ILS: +88%
  Lethality of the dosage (LD mark beside % ILS): LD17
[2]; [11]
  50-DAY SURV./TOTAL: 0/6
  % ILS: +22%
  MEDIAN DAY OF DEATH: 13.5
[2]; [12]
  50-DAY SURV./TOTAL: 0/6
  % ILS: +54%
[2]; [13]
  50-DAY SURV./TOTAL: 0/6
  % ILS: +31%
  MEDIAN DAY OF DEATH: 14.5
Cytotoxicity in vitro
  activity as cytotoxic agents in vitro: inactive
P388/0 murine leukemia; [11]
  50-DAY SURV./TOTAL: 0/6
P388/0 murine leukemia; [12]
  50-DAY SURV./TOTAL: 0/6
  MEDIAN DAY OF DEATH: 19.0
P388/0 murine leukemia; [13]
  50-DAY SURV./TOTAL: 0/6
  APPROX. NET LOG10 CHANGE IN TUMOR BURDEN AT END OF Rx: TOXIC
  MEDIAN DAY OF DEATH: 8.5

## COc1nc(C(Cl)(Cl)Cl)c(Cl)c(OC(=O)Cc2cccs2)c1Cl [DM-TA-PEN]
[3]; IP 90 mg/kg/dose, Days 12-16
  T-C: >41.2 days
  Tumor-Free-Surv/Total: 3/5
[4]; IP 90 mg/kg/dose
  Median % ILS (dying mice only): +75%
  Tumor-Free-Surv/Total: 0/5

## COc1nc(C(Cl)(Cl)Cl)c(Cl)c(OC(=O)c2cccs2)c1Cl [DM-TC-PEN]
[3]; IP 90 mg/kg/dose, Days 12-16
  T-C: >41.2 days
  Tumor-Free-Surv/Total: 4/5
[4]; IP 135 mg/kg/dose
  Median % ILS (dying mice only): +100%
  Tumor-Free-Surv/Total: 0/5
[4]; in comparison to PEN and DM-PEN
  activity against i.c.-implanted tumor (in words): significant activity
[4]
  Median % ILS (based on dying mice only): 100^d %
  Survivors: 0/5

## N[C@@H](Cc1ccc(N(CCCl)CCCl)cc1)C(=O)O [L-PAM (melphalan), melphalan]
[5]; [14]
  50-DAY SURV./TOTAL: 0/6
  % ILS: +14%
  APPROX. NET LOG10 CHANGE IN TUMOR BURDEN AT END OF Rx: −1.8
  MEDIAN DAY OF DEATH: 18.0
[5]; [6]
  50-DAY SURV./TOTAL: 0/6
  % ILS: +14%
  APPROX. NET LOG10 CHANGE IN TUMOR BURDEN AT END OF Rx: −1.8
  MEDIAN DAY OF DEATH: 18.0
P388/0 murine leukemia; [14]
  50-DAY SURV./TOTAL: 6/6
P388/0 murine leukemia; [6]
  50-DAY SURV./TOTAL: 5/6
  % ILS: +208%
  APPROX. NET LOG10 CHANGE IN TUMOR BURDEN AT END OF Rx: ca −6.8
  MEDIAN DAY OF DEATH: 34.0
